From patent publication US12679849B2, “Macrocyclic compounds as STING agonists” (LUPIN LIMITED, priority 2019, dated 2026)

Key:
Human STING = target: T1, Human STING (Homo sapiens, UniProt Q86WV6, G230A/H232R/R293Q/R71H); experiment: Stimulation of human STING signalling in THP1-Blue ISG SEAP reporter cell line; format: cell-based; details: THP1-Blue ISG cells, 18-20 hours incubation
T1 construct: using human THP1-Blue™ ISG SEAP based reporter cell line (Invivogen); host or cells: THP1-Blue ISG (human monocytic THP-1 derived SEAP reporter line)
T1 sequence (Q86WV6 whole entry R71H/G230A/H232R/R293Q): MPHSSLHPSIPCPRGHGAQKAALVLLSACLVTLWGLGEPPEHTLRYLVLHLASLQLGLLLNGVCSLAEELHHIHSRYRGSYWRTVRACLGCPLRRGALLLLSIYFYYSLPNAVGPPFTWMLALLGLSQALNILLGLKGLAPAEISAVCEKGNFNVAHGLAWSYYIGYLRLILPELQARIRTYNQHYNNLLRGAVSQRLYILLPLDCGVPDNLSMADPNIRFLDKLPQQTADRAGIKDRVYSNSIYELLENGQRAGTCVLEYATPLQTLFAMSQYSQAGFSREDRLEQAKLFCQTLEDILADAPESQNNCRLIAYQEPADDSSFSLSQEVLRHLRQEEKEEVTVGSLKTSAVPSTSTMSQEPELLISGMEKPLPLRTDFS
Procedure: Stimulation of Human STING Signalling in THP1 Cell Line
Compounds were tested for their STING activation potential using human THP1-Blue™ ISG SEAP based reporter cell line (Invivogen). Briefly, THP1-Blue ISG cells (100,000 cells/well) in 96 well plate were treated with varying concentrations of test and reference compounds and incubated at 37° C. with 5% CO2 for 18-20 hours. The control untreated cells were also set up. Post incubation, the cell supernatant was tested for SEAP (Secreted Embryonic Alkaline Phosphatase) activity using the QuantiBlue™ substrate reagent (Invivogen). The formation of blue coloured product was quantified by measuring absorbance at wavelength of 620 nm using PheraStar/Tecan reader. The average of duplicate readouts for each data point was plotted in GraphPad prism 6 against the concentration of test or reference compound to calculate EC50 value. The fold of SEAP induction or increase in luminescence at different data points was estimated against the un-stimulated cell control set.

IFNβ = experiment: Cytokine (IFNβ) secretion in serum samples from CT-26 tumor bearing BALB/c mice; format: in vivo, mouse; details: serum of CT-26 tumor-bearing BALB/c mice, 0.5 mg/kg, 3.5 h
Procedure: Quantification of the Cytokine Secretion in Serum Samples from the CT-26 Tumor Bearing BALB/c Mice
CT-26 tumor-bearing animals were administered with test compounds at the dose of 0.5 mg/kg, in a dose-volume of 5 ml/kg. Serum samples were collected at designated time points (3.5 h) and frozen at −80° C. till further estimation. Mouse serum samples were diluted appropriately with dilution buffer before estimation of IFNβ utilizing commercially available kits (VeriKine Mouse IFN Beta ELISA, PBL assay science, Catalog No 42400-2). Raw data values were corrected with the dilution factor and finally expressed in pg/mL.

CCn1nc(C)cc1C(=O)Nc1nc2cc(C(N)=O)cc3c2n1C/C=C/Cn1c(NC(=O)c2cc(C)nn2CC)nc2cc(C(N)=O)cc(c21)OCC(N1C2CCC1COC2)CO3 [Compound 2, (E)-8-(3-oxa-8-azabicyclo[3.2.1]octan-8-yl)-1,15-bis(1-ethyl-3-methyl-1H-pyrazole-5-carboxamido)-8,9,16,19-tetrahydro-7H-6,10-dioxa-2,14,15a,19a-tetraazacyclopentadeca[3,2,1-cd:8,9,10-c′d′]diindene-4,12-dicarboxamide]
EC50 (Human STING): 1 to 10 nM | IFNβ secretion (IFNβ): 28305 pg/mL
